The results in this text go back to patent publication US8343983B2, “Substituted pyrazolo-pyrimidine compounds” (ArQule, Inc., priority 2009, dated 2013).

This assay deals with cancer cells. The experiment in a line: MTS assay: inhibition of cell growth (formazan absorbance at 492 nm after 72 hours with test compound). Type of assay: cell-based. The following applies: inhibition class. The method, then: Cells were maintained at 37° C., 5% CO2 in DMEM media supplemented with 1% fetal bovine serum, penicillin/streptomycin and fungizone (Invitrogen). Cells were seeded into 96-well tissue culture plates at 3000 per well and cultured at 37° C. for 18 hours. Test compounds were dissolved and diluted to 300× in DMSO then diluted 1:40 in DMEM. Cells were incubated with test compounds for 72 hours followed by incubation with tetrazolium compound (3-(4,5-dimethylthiazol-2-yl)-5-(3-carboxymethoxyphenyl)-2-(4-sulfophenyl)-2H-tetrazolium, inner salt; MTS) and the electron coupling reagent, phenazine methosulfate (PMS) for 4 hours. […] The ability of compounds to inhibit cell growth in this assay is correlated with the reduction of dehydrogenase enzyme activity found in metabolically active cells. The measurement of the absorbance of the formazan was assessed using an ENVISION™ (Perkin Elmer) microplate reader at 492 nm. The calculated IC50 value is the concentration of the test compound that causes a 50% decrease in the absorbance. […] A=>79% inhibition, B=>50 to 79% inhibition, C=<50% inhibition.

Where [1] appears, read: Homo sapiens, DLD-1 cells, read-out: DLD-1, MTS 72 hours at 10 uM.
The mark [2] stands for this setting: Homo sapiens, KATO III cells, read-out: KATO III, MTS 72 hours at 10 uM.
Where [3] appears, read: Homo sapiens, MDA-MB-231 cells, read-out: MDA-MB-231, MTS 72 hours at 10 uM.
Where [4] appears, read: Homo sapiens, NCI-H1299 cells, read-out: NCI-H1299, MTS 72 hours at 10 uM.
Where [5] appears, read: Homo sapiens, PC-3 cells, read-out: PC-3, MTS 72 hours at 10 uM.
Setting [6] is: PACA-2 cells, read-out: PACA-2, MTS 72 hours at 10 uM.

SMILES strings stand for the structures. Like-named read-outs stand apart in the source and are kept apart here. A value given as a limit tells only on which side of the number the result lay.

In the case of `O=C(NCCOc1ccccc1)C1CN(Cc2ccccc2)c2nc(NCc3ccccc3)nc3[nH]nc1c23` (stereo not drawn) [Compound 241, 6-benzyl-4-(benzylmino)-N-(2-phenoxyethyl)-2,6,7,8-tetrahydro-1,2,3,5,6-pentaazaacenaphthylene-8-carboxamide], the inhibition at 10 µM was under 50% under setting [1]; under 50% under setting [2]; under 50% under setting [3]; under 50% under setting [4]; under 50% under setting [5]; under 50% under setting [6].
In the case of `Brc1ccc(CCNc2nc3c4c(n[nH]c4n2)CCN3Cc2ccccc2)cc1` [Compound 97, 6-benzyl-N-[2-(4-bromophenyl)ethyl]-2,6,7,8-tetrahydro-1,2,3,5,6-pentaazaacenaphthylen-4-amine], the inhibition at 10 µM was 50 to 79% under setting [1]; under 50% under setting [2]; under 50% under setting [3]; 50 to 79% under setting [4]; under 50% under setting [5]; under 50% under setting [6].
`c1ccc(CN2CCc3n[nH]c4nc(NCCCN5CCOCC5)nc2c34)cc1` [Compound 25, 6-benzyl-N-(3-morpholin-4-ylpropyl)-2,6,7,8-tetrahydro-1,2,3,5,6-pentaazaacenaphthylen-4-amine]: the inhibition at 10 µM reads like this: under setting [1], under 50%; under setting [2], under 50%; under setting [3], under 50%; under setting [4], under 50%; under setting [5], under 50%; under setting [6], under 50%.
On to `COc1ccc(CN2CCc3n[nH]c4nc(NCCc5c[nH]c6ccc(Cl)cc56)nc2c34)cc1` [Compound 115, N-[2-(5-chloro-1H-indol-3-yl)ethyl]-6-(4-methoxybenzyl)-2,6,7,8-tetrahydro-1,2,3,5,6-pentaazaacenaphthylen-4-amine], for which the inhibition at 10 µM under setting [1] was over 79%; the inhibition at 10 µM under setting [2] was over 79%; the inhibition at 10 µM under setting [3] was over 79%; the inhibition at 10 µM under setting [4] is over 79%; the inhibition at 10 µM under setting [5] was over 79%; the inhibition at 10 µM under setting [6] was over 79%.
Take `c1ccc(CNc2nc3c4c(n[nH]c4n2)CCN3c2ccccc2)cc1` [Compound 208, N-benzyl-6-phenyl-2,6,7,8-tetrahydro-1,2,3,5,6-pentaazaacenaphthylen-4-amine]: the inhibition at 10 µM runs as follows: under setting [1], under 50%; under setting [2], under 50%; under setting [3], under 50%; under setting [4], under 50%; under setting [5], under 50%; under setting [6], under 50%.
For the compound `Clc1ccc(CCNc2nc3c4c(n[nH]c4n2)CCN3Cc2ccccc2)cc1` [Compound 61, 6-benzyl-N-[2-(4-chlorophenyl)ethyl]-2,6,7,8-tetrahydro-1,2,3,5,6-pentaazaacenaphthylen-4-amine], the inhibition at 10 µM under setting [1] is 50 to 79%; the inhibition at 10 µM under setting [2] was under 50%; the inhibition at 10 µM under setting [3] is under 50%; the inhibition at 10 µM under setting [4] fell in the range of 50 to 79%; the inhibition at 10 µM under setting [5] was under 50%; the inhibition at 10 µM under setting [6] is under 50%.
Consider `c1ccc(CN2CCc3n[nH]c4nc(N5CCN(c6ncccn6)CC5)nc2c34)cc1` [Compound 13, 6-benzyl-4-(4-pyrimidin-2-ylpiperazin-1-yl)-2,6,7,8-tetrahydro-1,2,3,5,6-pentaazaacenaphthylene], for which the inhibition at 10 µM is under 50% under setting [1]; under 50% under setting [2]; under 50% under setting [3]; under 50% under setting [4]; under 50% under setting [5]; under 50% under setting [6].
As for `c1ccc(CN2CCN(CCNc3nc4c5c(n[nH]c5n3)CCN4Cc3ccccc3)CC2)cc1` [Compound 33, 6-benzyl-N-[2-(4-benzylpiperazin-1-yl)ethyl]-2,6,7,8-tetrahydro-1,2,3,5,6-pentaazaacenaphthylen-4-amine], the inhibition at 10 µM is under 50% under setting [1]; under 50% under setting [2]; under 50% under setting [3]; under 50% under setting [4]; under 50% under setting [5]; under 50% under setting [6].
On to `COc1ccc(CN2CCCc3n[nH]c4nc(NCCN5CCOCC5)nc2c34)cc1` [Compound 249, 6-(4-methoxybenzyl)-N-(2-morpholin-4-ylethyl)-6,7,8,9-tetrahydro-2H-1,2,3,5,6-pentaazabenzo[cd]azulen-4-amine], for which the inhibition at 10 µM under setting [1] was under 50%; the inhibition at 10 µM under setting [2] was under 50%; the inhibition at 10 µM under setting [3] is under 50%; the inhibition at 10 µM under setting [4] was under 50%; the inhibition at 10 µM under setting [5] is under 50%; the inhibition at 10 µM under setting [6] was under 50%.
In the case of `Cc1cccc(CCNc2nc3c4c(n[nH]c4n2)CCN3Cc2ccccc2)c1` [Compound 77, 6-benzyl-N-[2-(3-methylphenyl)ethyl]-2,6,7,8-tetrahydro-1,2,3,5,6-pentaazaacenaphthylen-4-amine], the inhibition at 10 µM was under 50% under setting [1]; under 50% under setting [2]; under 50% under setting [3]; 50 to 79% under setting [4]; under 50% under setting [5]; under 50% under setting [6].
Turning to `CN1CCN(c2nc3c4c(n[nH]c4n2)C(C(=O)NCc2ccccc2)CN3Cc2ccccc2)CC1` (stereo not drawn) [Compound 228, N,6-dibenzyl-4-(4-methylpiperazin-1-yl)-2,6,7,8-tetrahydro-1,2,3,5,6-pentaazaacenaphthylene-8-carboxamide], the inhibition at 10 µM is, setting by setting: under setting [1], under 50%; under setting [2], under 50%; under setting [3], under 50%; under setting [4], under 50%; under setting [5], under 50%; under setting [6], under 50%.
`COc1cccc(CCNc2nc3c4c(n[nH]c4n2)CCN3Cc2ccccc2)c1` [Compound 36, 6-benzyl-N-[2-(3-methoxyphenyl)ethyl]-2,6,7,8-tetrahydro-1,2,3,5,6-pentaazaacenaphthylen-4-amine]: the inhibition at 10 µM was under 50% under setting [1]; under 50% under setting [2]; under 50% under setting [3]; under 50% under setting [4]; under 50% under setting [5]; under 50% under setting [6].
Turning to `OCCN(Cc1ccccc1)c1nc2c3c(n[nH]c3n1)CCN2Cc1ccccc1` [Compound 62, 2-[benzyl(6-benzyl-2,6,7,8-tetrahydro-1,2,3,5,6-pentaazaacenaphthylen-4-yl)amino]ethanol], the inhibition at 10 µM was under 50% under setting [1]; under 50% under setting [2]; 50 to 79% under setting [3]; under 50% under setting [4]; under 50% under setting [5]; under 50% under setting [6].
On to `c1ccc(CNc2nc3c4c(n[nH]c4n2)CCN3)cc1` [Compound 101, N-benzyl-2,6,7,8-tetrahydro-1,2,3,5,6-pentaazaacenaphthylen-4-amine], for which the inhibition at 10 µM was 50 to 79% under setting [1]; under 50% under setting [2]; under 50% under setting [3]; under 50% under setting [4]; 50 to 79% under setting [5]; over 79% under setting [6].
